In the supplement of paper PMC9663587:

Each cell line was assayed with CCN1CCN(Cc2ccc(Nc3ncc(F)c(-c4cc(F)c5nc(C)n(C(C)C)c5c4)n3)nc2)CC1 (assay: increase in dead-cell fraction, 72 h; higher = more death). Settings: 0.001 µM.
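Further: breast cancer cell lines in 384-well plates, stained with Hoechst plus LIVE/DEAD far red dye and imaged, cells above an LDR intensity threshold counted dead, Hoechst-negative corpses included.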

Cell Line | increase in dead-cell fraction
SUM44PE | 0.0036
SUM52PE | -0.0031
SUM149 | -0.0036

Same assay, conditions: 0.003162 µM

Cell Line | increase in dead-cell fraction
PDXHCI002 | -0.0293
SKBR3 | 0.003
SUM44PE | -0.0095
SUM52PE | -0.0003
SUM149 | -0.0058

Same assay, conditions: 0.01 µM

Cell Line | increase in dead-cell fraction
PDXHCI002 | -0.0317
SKBR3 | 0.0233
SUM44PE | 0.0221
SUM52PE | 0.0005
SUM149 | -0.0009

Same assay, conditions: 0.03162 µM

Cell Line | increase in dead-cell fraction
PDXHCI002 | -0.0292
SKBR3 | 0.0346
SUM44PE | 0.0221
SUM52PE | 0.0052
SUM149 | -0.0068

Same assay, conditions: 0.1 µM

Cell Line | increase in dead-cell fraction
PDXHCI002 | -0.0036
SKBR3 | 0.0399
SUM44PE | -0.017
SUM52PE | 0.0077
SUM149 | -0.0045

Same assay, conditions: 0.3162 µM

Cell Line | increase in dead-cell fraction
PDXHCI002 | 0.0233
SKBR3 | 0.0362
SUM44PE | 0.0843
SUM52PE | 0.0061
SUM149 | -0.0069

Same assay, conditions: 1 µM

Cell Line | increase in dead-cell fraction
PDXHCI002 | 0.161
SKBR3 | 0.0582
SUM44PE | 0.0751
SUM52PE | 0.0107
SUM149 | -0.0076

Same assay, conditions: 3.162 µM

Cell Line | increase in dead-cell fraction
PDXHCI002 | 0.61
SKBR3 | 0.0358
SUM44PE | 0.0328
SUM52PE | 0.0058
SUM149 | -0.0046

Same assay, conditions: 10 µM

Cell Line | increase in dead-cell fraction
PDXHCI002 | 0.778
SKBR3 | 0.0879
SUM44PE | 0.697
SUM52PE | 0.0135
SUM149 | 0.0956

The cell lines below were run with CCOc1cc2ncc(C#N)c(Nc3ccc(OCc4ccccn4)c(Cl)c3)c2cc1NC(=O)/C=C/CN(C)C [Neratinib/HKI272] in the same assay as above. Settings: 0.0003162 µM.

Cell Line | increase in dead-cell fraction
PDXHCI002 | 0.0061
SKBR3 | 0.0178
SUM44PE | -0.0158
SUM52PE | -0.0009
SUM149 | -0.0005

Same assay, conditions: 0.001 µM

Cell Line | increase in dead-cell fraction
PDXHCI002 | -0.001
SKBR3 | 0.0381
SUM44PE | -0.0227
SUM52PE | 0.0018
SUM149 | -0.0026

Same assay, conditions: 0.003162 µM

Cell Line | increase in dead-cell fraction
PDXHCI002 | -0.0049
SKBR3 | 0.111
SUM44PE | -0.0156
SUM52PE | 0.0022
SUM149 | -0.0047

Same assay, conditions: 0.01 µM

Cell Line | increase in dead-cell fraction
PDXHCI002 | -0.0162
SKBR3 | 0.156
SUM44PE | 0.029
SUM52PE | 0.0007
SUM149 | -0.0034

Same assay, conditions: 0.03162 µM

Cell Line | increase in dead-cell fraction
PDXHCI002 | 0.0001
SKBR3 | 0.222
SUM44PE | 0.0991
SUM52PE | 0.0026
SUM149 | 0.001

Same assay, conditions: 0.1 µM

Cell Line | increase in dead-cell fraction
PDXHCI002 | -0.0122
SKBR3 | 0.24
SUM44PE | 0.118
SUM52PE | 0.0033
SUM149 | 0.0172

Same assay, conditions: 0.3162 µM

Cell Line | increase in dead-cell fraction
PDXHCI002 | 0.0151
SKBR3 | 0.303
SUM44PE | 0.137
SUM52PE | 0.0005
SUM149 | 0.0405

Same assay, conditions: 1 µM

Cell Line | increase in dead-cell fraction
PDXHCI002 | 0.0548
SKBR3 | 0.362
SUM44PE | 0.22
SUM52PE | 0.0053
SUM149 | 0.0409

Same assay, conditions: 3.162 µM

Cell Line | increase in dead-cell fraction
PDXHCI002 | 0.31
SKBR3 | 0.364
SUM44PE | 0.358
SUM52PE | 0.0166
SUM149 | 0.0594

The cell lines below were run with CC(=O)c1c(C)c2cnc(Nc3ccc(N4CCN(CCOCCOCCOCCNC(=O)COc5cccc6c5C(=O)N(C5CCC(=O)NC5=O)C6=O)CC4)cn3)nc2n(C2CCCC2)c1=O [BSJ-03-123] in the same assay as above. Settings: 0.001 µM.

Cell Line | increase in dead-cell fraction
PDXHCI002 | -0.0304
SKBR3 | -0.001
SUM44PE | 0.0021
SUM52PE | -0.0027
SUM149 | -0.0068

Same assay, conditions: 0.003162 µM

Cell Line | increase in dead-cell fraction
PDXHCI002 | -0.0395
SKBR3 | 0.0008
SUM44PE | 0.0071
SUM52PE | 0.001
SUM149 | -0.0064

Same assay, conditions: 0.01 µM

Cell Line | increase in dead-cell fraction
PDXHCI002 | -0.0247
SKBR3 | 0.0041
SUM44PE | 0.0014
SUM52PE | 0.0043
SUM149 | -0.0053

Same assay, conditions: 0.03162 µM

Cell Line | increase in dead-cell fraction
PDXHCI002 | 0.0116
SKBR3 | -0.0049
SUM44PE | 0.0121
SUM52PE | 0.0027
SUM149 | 0.0051

Same assay, conditions: 0.1 µM

Cell Line | increase in dead-cell fraction
PDXHCI002 | 0.0131
SKBR3 | 0.0076
SUM44PE | 0.0265
SUM52PE | 0.0025
SUM149 | 0.0006

Same assay, conditions: 0.3162 µM

Cell Line | increase in dead-cell fraction
PDXHCI002 | 0.02
SKBR3 | -0.0004
SUM44PE | 0.0126
SUM52PE | 0.0035
SUM149 | -0.0032

Same assay, conditions: 1 µM

Cell Line | increase in dead-cell fraction
PDXHCI002 | 0.121
SKBR3 | 0.0088
SUM44PE | 0.0666
SUM52PE | 0.0021
SUM149 | 0.0245

Same assay, conditions: 3.162 µM

Cell Line | increase in dead-cell fraction
PDXHCI002 | 0.127
SKBR3 | 0.0136
SUM44PE | 0.115
SUM52PE | 0.0075
SUM149 | 0.0364

Same assay, conditions: 10 µM

Cell Line | increase in dead-cell fraction
PDXHCI002 | 0.299
SKBR3 | 0.15
SUM52PE | 0.025
